Reference: US20210100760A1 (Strongbridge Dublin Limited, priority 2019, published 2021)
Where two headings read alike, the source gives them in different places. One block for each compound: values may come before it.

Legend:
[1] = low plasma concentrations (1.0 to 2.0 mg/100 mL); cited from earlier work
[2] = biological target: T1, OAT1 (Homo sapiens, UniProt Q4U2R8); assay: OAT1 substrate determination in HEK293 cells; assay type: in vitro ADME; settings: for Uptake ratio: OAT1 vs control cells; for Uptake (Average ± SD), OAT1: OAT1-expressing HEK293 cells; for recovery at 10 μM: human
T1 sequence (Q4U2R8 1-563): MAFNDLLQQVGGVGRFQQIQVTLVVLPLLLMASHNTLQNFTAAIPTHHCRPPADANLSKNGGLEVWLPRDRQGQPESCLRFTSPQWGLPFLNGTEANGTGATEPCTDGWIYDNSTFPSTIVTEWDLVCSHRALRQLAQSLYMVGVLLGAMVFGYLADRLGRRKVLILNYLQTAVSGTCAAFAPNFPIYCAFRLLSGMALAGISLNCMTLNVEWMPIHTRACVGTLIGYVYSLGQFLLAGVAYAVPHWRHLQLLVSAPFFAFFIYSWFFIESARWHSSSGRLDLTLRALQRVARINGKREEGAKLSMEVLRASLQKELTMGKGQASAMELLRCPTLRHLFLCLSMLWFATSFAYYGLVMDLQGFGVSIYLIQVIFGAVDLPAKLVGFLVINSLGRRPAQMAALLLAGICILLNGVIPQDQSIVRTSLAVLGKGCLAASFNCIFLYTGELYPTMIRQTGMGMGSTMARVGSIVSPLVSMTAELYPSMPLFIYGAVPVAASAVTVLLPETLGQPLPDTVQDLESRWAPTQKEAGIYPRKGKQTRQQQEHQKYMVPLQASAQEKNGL

[3] = biological target: T2, OAT3 (Homo sapiens, UniProt Q8TCC7); assay: OAT3 substrate determination in HEK293 cells; assay type: in vitro ADME; settings: for Uptake ratio: OAT3 vs control cells; for Uptake (Average ± SD), OAT3: OAT3-expressing HEK293 cells; for recovery at 10 μM: human
T2 sequence (Q8TCC7 1-542): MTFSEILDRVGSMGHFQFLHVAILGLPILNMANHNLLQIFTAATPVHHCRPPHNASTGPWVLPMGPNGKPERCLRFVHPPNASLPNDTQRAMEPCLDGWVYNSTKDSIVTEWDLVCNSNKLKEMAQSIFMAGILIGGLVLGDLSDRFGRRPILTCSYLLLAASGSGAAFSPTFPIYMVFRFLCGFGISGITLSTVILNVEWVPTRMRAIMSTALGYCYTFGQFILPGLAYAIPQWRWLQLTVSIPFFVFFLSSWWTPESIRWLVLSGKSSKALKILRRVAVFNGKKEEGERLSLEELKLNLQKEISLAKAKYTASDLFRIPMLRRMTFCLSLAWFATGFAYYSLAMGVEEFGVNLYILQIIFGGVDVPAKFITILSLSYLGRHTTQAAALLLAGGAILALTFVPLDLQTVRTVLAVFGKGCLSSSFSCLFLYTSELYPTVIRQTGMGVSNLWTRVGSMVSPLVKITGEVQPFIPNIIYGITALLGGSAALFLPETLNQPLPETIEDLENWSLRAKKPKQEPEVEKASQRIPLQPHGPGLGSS

[4] = biological target: T2, OAT3; assay: OAT3 positive-control inhibition, [3H]-Estrone-3-sulfate probe substrate uptake in HEK293 cells; assay type: in vitro ADME; settings: [3H]-Estrone-3-sulfate (50 nM) probe, inhibitor 100 μM
[5] = dichlorphenamide 10 μM + probenecid 100 μM, 1 min
[6] = dichlorphenamide 10 μM + probenecid 100 μM, 3 min
[7] = dichlorphenamide 10 μM + probenecid 100 μM, 10 min
[8] = dichlorphenamide 10 μM + probenecid 100 μM, control HEK293 cells, 1 min
[9] = dichlorphenamide 10 μM + probenecid 100 μM, control HEK293 cells, 3 min
[10] = dichlorphenamide 10 μM + probenecid 100 μM, control HEK293 cells, 10 min
[11] = dichlorphenamide 10 μM, incubation 1 min
[12] = dichlorphenamide 10 μM, incubation 3 min
[13] = dichlorphenamide 10 μM, incubation 10 min

SMILES: Nc1ccc(C(=O)NCC(=O)O)cc1 [aminohippurate, p-aminohippuric acid]
- Fraction cleared by the kidneys from the renal blood stream in a single circulation (average) [1]: 90%

- Substrate of OAT1 (conclusion from Tables 1 and 2) ([2]; HEK293 cells): is a substrate of OAT1
- Uptake ratio [2, 5]: 1.29
- Uptake ratio [2, 6]: 1.11
- Uptake ratio [2, 7]: 1.01
- Uptake ratio ([2]; dichlorphenamide 10 μM, 1 min): 2.41
- Uptake ratio ([2]; dichlorphenamide 10 μM, 3 min): 2.39
- Uptake ratio ([2]; dichlorphenamide 10 μM, 10 min): 2.23
- Uptake (Average ± SD), OAT1 [2, 5]: 54.4 ± 2.7 pmol/mg protein
- Uptake (Average ± SD), OAT1 [2, 6]: 135 ± 6 pmol/mg protein
- Uptake (Average ± SD), OAT1 [2, 7]: 286 ± 17 pmol/mg protein
- Uptake (Average ± SD), Control [2, 8]: 42.2 ± 2.4 pmol/mg protein
- Uptake (Average ± SD), Control [2, 9]: 121 ± 8 pmol/mg protein
- Uptake (Average ± SD), Control [2, 10]: 284 ± 19 pmol/mg protein
- Uptake (Average ± SD), OAT1 [2, 11]: 109 ± 2 pmol/mg protein
- Uptake (Average ± SD), OAT1 [2, 12]: 294 ± 14 pmol/mg protein
- Uptake (Average ± SD), OAT1 [2, 13]: 591 ± 11 pmol/mg protein
- Uptake (Average ± SD), Control ([2]; dichlorphenamide 10 μM, control HEK293 cells (vector only), incubation 1 min): 45.4 ± 0.4 pmol/mg protein
- Uptake (Average ± SD), Control ([2]; dichlorphenamide 10 μM, control HEK293 cells (vector only), incubation 3 min): 123 ± 6 pmol/mg protein
- Uptake (Average ± SD), Control ([2]; dichlorphenamide 10 μM, control HEK293 cells (vector only), incubation 10 min): 265 ± 8 pmol/mg protein
- recovery at 10 μM ([2]; HEK293 cells expressing OAT1, pH 7.4, read-out: Recovery, OAT1): 98.5%
- recovery at 10 μM ([2]; control HEK293 cells (transfected with vector only), pH 7.4, read-out: Recovery, Control): 95.3%
- Substrate of OAT3 (conclusion from Tables 3 and 4) ([3]; HEK293 cells): is a substrate of OAT3
- Uptake ratio [3, 5]: 0.987
- Uptake ratio [3, 6]: 1.00
- Uptake ratio [3, 7]: 1.24
- Uptake ratio ([3]; dichlorphenamide 10 μM, 1 min): 2.26
- Uptake ratio ([3]; dichlorphenamide 10 μM, 3 min): 2.64
- Uptake ratio ([3]; dichlorphenamide 10 μM, 10 min): 2.75
- Uptake (Average ± SD), OAT3 [3, 5]: 123 ± 7 pmol/mg protein
- Uptake (Average ± SD), OAT3 [3, 6]: 126 ± 18 pmol/mg protein
- Uptake (Average ± SD), OAT3 [3, 7]: 177 ± 16 pmol/mg protein
- Uptake (Average ± SD), Control [3, 8]: 124 ± 13 pmol/mg protein
- Uptake (Average ± SD), Control [3, 9]: 125 ± 5 pmol/mg protein
- Uptake (Average ± SD), Control [3, 10]: 143 ± 41 pmol/mg protein
- Uptake (Average ± SD), OAT3 [3, 11]: 333 ± 24 pmol/mg protein
- Uptake (Average ± SD), OAT3 [3, 12]: 311 ± 29 pmol/mg protein
- Uptake (Average ± SD), OAT3 [3, 13]: 463 ± 27 pmol/mg protein
- Uptake (Average ± SD), Control ([3]; dichlorphenamide 10 μM, control HEK293 cells, incubation 1 min): 147 ± 47 pmol/mg protein
- Uptake (Average ± SD), Control ([3]; dichlorphenamide 10 μM, control HEK293 cells, incubation 3 min): 118 ± 3 pmol/mg protein
- Uptake (Average ± SD), Control ([3]; dichlorphenamide 10 μM, control HEK293 cells, incubation 10 min): 169 ± 9 pmol/mg protein
- recovery at 10 μM ([3]; HEK293 cells expressing OAT3, pH 7.4, read-out: Recovery, OAT3): 77.9%
- recovery at 10 μM ([3]; control HEK293 cells, pH 7.4, read-out: Recovery, Control): 68.8%
SMILES: NS(=O)(=O)c1cc(Cl)c(Cl)c(S(N)(=O)=O)c1 [Dichlorphenamide, 4,5-dichloro-1,3-benzenedisulfonamide]

- Background corrected uptake rate [4]: 0.0184 pmol/mg/min
- Uptake (Average ± SD), OAT3 ([4]; OAT3-expressing HEK293 cells): 0.104 ± 0.006 pmol/mg protein
- Uptake (Average ± SD), Control ([4]; control HEK293 cells): 0.0670 ± 0.0124 pmol/mg protein
- activity at 100 μM ([4]; human, HEK293 cells expressing OAT3 and control cells, pH 7.4, probe [3H]-Estrone-3-sulfate (50 nM), relative to solvent control, read-out: Percent of control): 3.2%
SMILES: CCCN(CCC)S(=O)(=O)c1ccc(C(=O)O)cc1 [Probenecid]
